# In article PMC2922422 (Neuropsychopharmacology : official publication of the …, 2010):
# Structures can show the parent of a compound that is named as a salt.
# Legend:
# Wistar rats [1] = experiment: intravenous cocaine self-administration, short; details: for cocaine self-administration (infusions earned, % of baseline): 30 min pretreatment, vs vehicle; for inactive lever presses: cocaine self-administration
# Wistar rats [2] = experiment: food-maintained responding; details: food-restricted rats, 1 h session
# ShA rats = details: 3 mg/kg, ref Baptista et al 2004; cited from earlier work
# Wistar rats [3] = experiment: cue-induced reinstatement of food-seeking behavior; details: food-responding rats; 10, 20, 40 mg/kg i.p., between-subjects
# rat mGluR3 = rat mGluR3 (Rattus norvegicus, UniProt P31422); experiment: thallium flux assay, mGluR3 GIRK HEK-293 cells; format: cell-based; details: in presence of EC20 glutamate
# rat mGluR3, sequence (P31422 23-879): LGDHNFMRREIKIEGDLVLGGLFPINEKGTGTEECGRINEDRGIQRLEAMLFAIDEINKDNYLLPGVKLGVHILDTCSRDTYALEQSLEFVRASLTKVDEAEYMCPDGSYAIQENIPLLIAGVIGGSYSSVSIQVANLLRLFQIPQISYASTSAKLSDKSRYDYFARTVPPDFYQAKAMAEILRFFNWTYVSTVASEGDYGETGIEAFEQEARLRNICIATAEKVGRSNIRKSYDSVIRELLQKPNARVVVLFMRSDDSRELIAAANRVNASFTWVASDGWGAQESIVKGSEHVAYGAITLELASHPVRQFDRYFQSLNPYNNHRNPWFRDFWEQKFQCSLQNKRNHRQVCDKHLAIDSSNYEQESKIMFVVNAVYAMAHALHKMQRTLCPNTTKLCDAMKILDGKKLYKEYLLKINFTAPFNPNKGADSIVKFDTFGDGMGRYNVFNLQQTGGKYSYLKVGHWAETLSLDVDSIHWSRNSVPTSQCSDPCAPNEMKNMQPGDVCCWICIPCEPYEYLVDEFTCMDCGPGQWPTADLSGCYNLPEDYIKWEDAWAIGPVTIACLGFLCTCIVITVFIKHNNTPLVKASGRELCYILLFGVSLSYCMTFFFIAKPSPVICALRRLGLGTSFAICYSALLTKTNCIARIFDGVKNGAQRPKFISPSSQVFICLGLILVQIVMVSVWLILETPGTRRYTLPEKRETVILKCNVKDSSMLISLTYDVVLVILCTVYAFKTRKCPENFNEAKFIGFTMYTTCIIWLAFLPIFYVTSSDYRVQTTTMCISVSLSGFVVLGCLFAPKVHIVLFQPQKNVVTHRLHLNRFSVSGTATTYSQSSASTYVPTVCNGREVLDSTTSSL
# [4] = brain and plasma levels 1 h after administration; format: in vivo; details: rat, geometric mean (lower – upper limits)
# [5] = plasma pharmacokinetics after i.p. administration; format: in vivo; details: rat, mean ± SD
# Wistar rats [6] = experiment: intracranial self-stimulation; format: in vivo, rat
# Wistar rats [7] = experiment: cue-induced reinstatement of cocaine-seeking behavior
structure (smiles),measurement,setting,value
"N[C@@]1(C(=O)O)CO[C@H]2[C@H](C(=O)O)[C@H]21 [LY379268, [−]-2-oxa-4-aminobicyclo[3.1.0]hexane-4,6-dicarboxylate]","cocaine self-administration (infusions earned, % of baseline)","Wistar rats [1]; LgA rats, 6 h session and first hour, 6 mg/kg",significant decrease in cocaine intake
same,"cocaine self-administration (infusions earned, % of baseline)","Wistar rats [1]; ShA rats, 1 h session, 3 and 6 mg/kg",significant decrease in cocaine intake
same,inactive lever presses,"Wistar rats [1]; 0.3, 1, 3, 6 mg/kg",no effect on inactive lever presses
same,food-maintained responding,Wistar rats [2]; 6 mg/kg,significantly decreased food responding
same,cocaine self-administration,ShA rats,decreased cocaine self-administration
"Cc1c(OCc2cccc(-c3ccc(C(=O)[O-])cc3)c2)cc2c(c1C)C(=O)C(C1CCCC1)C2.[K+] (centres unmarked) [BINA, potassium 3′-([2-cyclopentyl-6-7-dimethyl-1-oxo-2,3-dihydro-1H-inden-5yloxy]methyl)biphenyll-4-carboxylate]",cue-induced food seeking (active lever presses),Wistar rats [3],no effect on the number of active lever presses
same,inactive lever presses,"Wistar rats [1]; 10, 20, 40 mg/kg i.p.",no effect on inactive lever presses
same,food-maintained responding,"Wistar rats [2]; 10, 20, 40 mg/kg i.p.",no effect on food responding
same,potentiation of the glutamate EC20 response,rat mGluR3,inactive
same,Brain level (mean),[4]; 20 mg/kg,2.78 (0.65 – 6.39) μM
same,Plasma level (mean),[4]; 20 mg/kg,10.54 (0.79 – 25.48) μM
same,Brain level (mean),[4]; 40 mg/kg,2.30 (0.62 – 5.54) μM
same,Plasma level (mean),[4]; 40 mg/kg,7.79 (0.81 – 16.98) μM
same,AUC,[5]; 20 mg/kg i.p.,31 ± 5.0 h μM/L
same,Cmax,[5]; 20 mg/kg i.p.,9.3 ± 2.7 µM
same,Vd,[5]; 20 mg/kg i.p.,5.9 ± 2.6 L/kg
same,AUC,[5]; 40 mg/kg i.p.,114 ± 42 h μM/L
same,Cmax,[5]; 40 mg/kg i.p.,31 ± 14 µM
same,Vd,[5]; 40 mg/kg i.p.,1.7 ± 0.68 L/kg
same,cocaine-induced decrease in ICSS response latencies,Wistar rats [6]; 20 mg/kg i.p. combined with cocaine 10 mg/kg i.p.,reversed the cocaine-induced decrease in response latencies
same,ICSS response latencies,Wistar rats [6]; 40 mg/kg i.p. vs vehicle,significantly increased
same,cocaine-induced ICSS threshold lowering,Wistar rats [6]; 20 and 40 mg/kg i.p. combined with cocaine 10 mg/kg i.p.,attenuated cocaine-induced threshold lowering
same,ICSS reward thresholds,"Wistar rats [6]; administered alone, 20 and 40 mg/kg i.p.",significantly elevated reward thresholds
same,active lever presses in reinstatement sessions,"Wistar rats [7]; non-reinstated sub-groups of ShA and LgA rats (median split), 10-40 mg/kg i.p.",no effect of BINA treatment
same,cue-induced reinstatement of cocaine-seeking behavior,Wistar rats [7]; three ShA rats reinstating by predefined criterion,tended to reduce cue-induced reinstatement
"COC(=O)[C@H]1[C@@H](OC(=O)c2ccccc2)C[C@@H]2CC[C@H]1N2C [Cocaine, Cocaine hydrochloride, reference compound]",ICSS reward thresholds,"Wistar rats [6]; 10 mg/kg i.p., co-administered with vehicle or 10 mg/kg BINA",significantly lowered ICSS thresholds
